In patent publication US20100144690A1, “MEDICAMENTS AND METHODS FOR PROMOTING WOUND CONTRACTION” (RENOVO LIMITED, priority 2006, published 2010):

What was measured:
excisional wounds = assay: Excisional wound healing model, wound width and re-epithelialisation three days after wounding; format: in vivo, Male Sprague Dawley rats; details: for wound width of excisional wounds: three days after wounding, p<0.05 vs controls
Protocol: The guggulsterone (Z) was diluted in a solution containing 1% v/v ethanol (absolute ethanol, 200 proof, for molecular biology, purchased from Sigma-Aldrich) in phosphate buffered saline (PBS) to produce three solutions having concentrations as follows: • 1. 1 ng/100 μl (a 32 nM solution); • 2. 10 ng/100 μl (a 321 nM solution); and • 3. 1000 ng/100 μl (a 32 μM solution). At day 0, Male Sprague Dawley rats (200-250 g) were anaesthetised, shaved and wound sites were marked according to the Renovo rat incisional and excisional wounding template (4 wound model, 2×1 cm wounds at 5 cm from the base of the skull and 1 cm from the midline in each rat and 2×5 mm excisions at 8.5 cm from the base of the skull and 1 cm from the midline of each rat). One hundred microlitres of Guggulsterone (Z) at 1 ng, 10 ng or 1000 ng in 1% v/v ethanol/PBS (EtOH/PBS), were injected intradermally at the target wound sites, A, B, C and D. The intradermal injections caused the formation of a raised bleb, which was then either immediately incised to form 1 cm long experimental wounds at wound positions A and B, or subject to a 5 mm punch biopsy, at wound positions C and D. A separate group of rats were wounded, without any injection, to act as the untreated Naïve control group in addition to the diluent injected control group. All treated wounds were re-injected again 1 day post-wounding with the appropriate treatment via either injection of […] to each of the two margins of the 1 cm wound, or via injection of 25 μl to each of the four quadrants of a 5 mm punch biopsy, and harvested at day 3 post-wounding. […] The wounds were assessed using standard macroscopic wound assessment sheets that include a Visual Analogue Scale (VAS) to quantify the quality of the wounds. The excisions and incisions were analysed microscopically, after histological processing by image analysis for re-epithelialisation (excisions only) and wound width (incisions only) to determine the role of Guggulsterone (Z) on early wound healing. […] The average wound width value was calculated from all of the wounds at each treatment group.

incisional wounds = assay: Incisional scarring model, macroscopic and microscopic VAS scar assessment 70 days after wounding; format: in vivo, Male Sprague Dawley rats
Protocol: The guggulsterone (Z) was diluted in a solution containing 1% v/v ethanol (absolute ethanol, 200 proof, for molecular biology, purchased from Sigma-Aldrich) in phosphate buffered saline (PBS) to produce three solutions having concentrations as follows: • 1. 1 ng/100 μl (a 32 nM solution); • 2. 10 ng/100 μl (a 321 nM solution); and • 3. 1000 ng/100 μl (a 32 μM solution). At Day 0, male Sprague Dawley rats (200-250 g) were anaesthetised, shaved and wound sites were marked according to the Renovo rat incisional wounding template (2 wound model, 2×1 cm wounds at 5 cm from the base of the skull and 1 cm from the midline in each rat). […] The scars were assessed using standard macroscopic scar assessment sheets that include a Visual Analogue Scale (VAS) to quantify the quality of the scars. […] 70 days after wounding the experimental rats were killed, and the scars resulting from treated wounds and control wounds assessed both macroscopically and microscopically. The scars of the experimental rats were photographed and assessed using macroscopic scar assessment sheets. […] The best scars (typically of small width with colour, height and contour like normal skin) were scored towards the normal skin end of the scale (the left hand side of the VAS line) and bad scars (typically large width, raised with uneven contours and whiter colour) were scored towards the bad scar end of the scale (the right hand side of the VAS line). The marks were measured from the left hand side to provide the final value for the scar assessment in centimetres (to 1 decimal place). […] Histological slides were stained using Masson's trichrome, and scarring assessed, by two independent observers, using a microscopic visual analogue scale (VAS). […]

[1] = cited from earlier work
[2] = each concentration investigated (1, 10, 1000 ng/100 μl), 70 days post-wounding

For C/C=C1\C(=O)CC2C3CCC4=CC(=O)CC[C@]4(C)C3CC[C@]12C (stereo partly drawn) [Guggulsterone (Z), (17Z)-Pregna-4,17(20)-diene-3,16-dione-4,17(20)-cis-Pregnadiene-3,16-dione], the “wound width of excisional wounds” value (excisional wounds; 1 ng/100 μl (3.2 pmoles per cm of wound)) was “significantly decreased wound width”, the “wound width of excisional wounds” value (excisional wounds; 10 ng/100 μl (32 pmoles per cm of wound)) was “significantly decreased wound width” and the “promotion of wound contraction, by width of excisional wounds” value (excisional wounds; three days after wound formation) was “able to promote wound contraction”. For the same molecule, the “inhibition of scarring, macroscopic analysis of scars” value (incisional wounds; [2]) was “significantly inhibit scarring”, the “inhibition of scarring, microscopic analysis of scars” value (incisional wounds; [2]) was “significantly inhibit scarring” and the “macroscopic appearance of treated scar versus naïve control scar (FIG. 3)” value (incisional wounds; representative images, 70 days after wounding) was “considerably more difficult to detect”. For the same molecule, the “soluble in DMSO” value ([1]; DMSO, room temperature) was 5 mg/mL and the soluble in ethanol ([1]; ethanol) was “soluble”.
